Measured values reported in patent US6951647B2, “T cell binding ligand peptides and method of inducing a cellular immune response” (Cel-Sci Corporation, priority 2001, dated 2005).
Values joined by “and” are separate entries in the source; they are usually repeats but may differ in a detail not shown here. Equal values may be shown once. Where no end group is shown, it is not given here.

Experiments:
[1] = saline (0.15 M NaCl, pH 7.4) or WFI, 0.5-2.0 mg/ml; 2-8, 18-25 or 40 °C; pH 7.4 to 4.5; HPLC
Protocol: The long range stability of the peptide constructs formed using Peptide G, was carried out with the construct dissolved in saline (0.15 M NaCl, pH 7.4) or in water for injection (WFI) at a concentration of 0.5-2.0 mg/ml and stored frozen soon after preparation.

[2] = system: modified HGP-30 (mH, SEQ ID NO:6); test: Isotype analysis (ELISA) of anti-mH antibody in sera of immunized mice; assay type: in vivo; set-up: IgG1 / IgG2a / IgG2b / IgG3: unit not given here; details: for IgG1 / IgG2a / IgG2b / IgG3: ELISA signal, day 42 test bleeding; for Ig1, serial dilution 1:200 / Ig1, serial dilution 1:800 / Ig1, serial dilution 1:3200 / Ig1, serial dilution 1:12800 / Ig1, serial dilution 1:51200 / Ig1, serial dilution 1:204800 / Ig2a, serial dilution 1:200 / Ig2a, serial dilution 1:800 / Ig2a, serial dilution 1:3200 / Ig2a, serial dilution 1:12800 / Ig2a, serial dilution 1:51200 / Ig2a, serial dilution 1:204800 / Ig2b, serial dilution 1:200 / Ig2b, serial dilution 1:800 / Ig2b, serial dilution 1:3200 / Ig2b, serial dilution 1:12800 / Ig2b, serial dilution 1:51200 / Ig2b, serial dilution 1:204800 / Ig3, serial dilution 1:200 / Ig3, serial dilution 1:800 / Ig3, serial dilution 1:3200 / Ig3, serial dilution 1:12800 / Ig3, serial dilution 1:51200 / Ig3, serial dilution 1:204800: day 28 pool
Protocol: (§1) Mice in groups (5-10 animals per group as designated) are immunized with the LEAPS constructs (25 μg/dose) of SEQ ID NO's:37, 38 and 39, in 0.2 mL emulsified 1:1 with adjuvant (Seppic's ISA-51 or Corixa's microfluidized MPL S/E) on days 0 and 14. Mice are evaluated by Delayed Type of Hypersensitivity (DTH) by inoculation on day 26 with 20 μl of a solution of saline or mH (SEQ ID NO:6) (25 μg in saline) in the left or right ear respectively. The DTH response is determined by measurement of the ear thickness 48 hours later and expressed as increase in ear thickness (mm) of experimental ear compared to that of the control ear. Individual animal sera are collected for measurement of antibody on day 28, 42, 63 and 77. Sera from individual animals and group pools are evaluated for specific anti-mH antibody, for total antibody, IgG1, IgG2a and IgG3 antibody isotype and cross clade titer at selected time points as indicated.
The results of an isotype analysis of day 42 test bleedings with G′-mH (SEQ ID NO:37), G-mH (SEQ ID NO:38), J-mH (SEQ ID NO:39), F-mH (SEQ ID NO:40) and F-HGP-30 (SEQ ID NO:41), are shown in Table 1.
An isotype analysis for pools of day 28 test bleedings G-mH, G′-mH and m-HGP-30/KLH using either MPL S/E or ISA51 as adjuvant, are shown in Table 3.

modified HGP-30 = test: ELISA antibody screening of sera of immunized mice on modified HGP-30; assay type: in vivo; details: for ELISA test antigen Modified HGP-30: day 42 test bleeding
Protocol: as §1, with “indicated. […]” for “indicated.”

B Clade = test: ELISA cross clade recognition by sera of immunized mice, B Clade; assay type: in vivo; details: for ELISA test antigen B Clade: day 42 test bleeding
Protocol: as §1
(§2) The mouse sera for the ELISA was used at a dilution of 1:200. Again, clearly, the construct provides higher signals indicative of higher levels of the antibodies that recognized other clades besides the parental one (Clade B) of mH.
(§3) A cross clade analysis for pools of day 42 test bleedings from the same groups as used in Table 3, were obtained and the results are shown in Table 4.

C Clade = test: ELISA cross clade recognition by sera of immunized mice, C Clade; assay type: in vivo; details: for ELISA test antigen C Clade: day 42 test bleeding
Protocol: as §1, §2, §3

D Clade [3] = test: ELISA cross clade recognition by sera of immunized mice, D Clade; assay type: in vivo; details: for ELISA test antigen D Clade: day 42 test bleeding, Group Average
Protocol: as §1, §2, §3

E Clade [4] = test: ELISA cross clade recognition by sera of immunized mice, E Clade; assay type: in vivo; details: for ELISA test antigen E Clade: day 42 test bleeding, Group Average
Protocol: as §1, §2, §3

Peptide G [5] = test: Specificity analysis for the TCBL carrier, ELISA plates coated with Peptide G; assay type: in vivo, Mice; details: for A 490 1:200 dilution on plates coated with Peptide G: Average
Protocol: as §1
A specificity analysis for the TCBL or KLH carrier for pools of day 42 test bleedings from the G-mH, G′-mH and mH/KLH, using either MPL S/E or ISA51 as adjuvant, was carried out (all sera assayed at a dilution of 1:200) and the results are shown in Table 5. […] This observation is especially significant for vaccines used on a repetitive basis, such as, either a vaccine that requires more frequent intervals between boosters for maintenance of cellular reactivity or as a therapeutic vaccine.

D Clade [6] = test: ELISA cross clade recognition by sera of immunized mice, D Clade; assay type: in vivo; details: day 42 test bleeding, individual mouse
E Clade [7] = test: ELISA cross clade recognition by sera of immunized mice, E Clade; assay type: in vivo; details: day 42 test bleeding, individual mouse
Peptide G [8] = test: Specificity analysis for the TCBL carrier, ELISA plates coated with Peptide G; assay type: in vivo, Mice; details: individual animal
[9] = group without '(with MPL)' (ISA51)
[10] = day 63 test bleeding, sera 1:200, individual mouse

## DGQEEKAGVVSTGLI [Peptide G′]
[1]
  Long range stability (deamination) of peptide constructs: overcomes the long range stabilization problem of the peptide conjugates

## NGQ EEK AGV VST GLI GGG ATL YSV HQR IDV KDT KEA LEK IEE EQN KS (DGQEEKAGVVSTGLIGGGEAQNTTYL) [SEQ ID NO: 58, Peptide G linked by GGG spacer to modified HGP-30 (mH)]
[2]; group Average
  IgG1: 1.400
  IgG2a: 0.367
  IgG2b: 0.478
  IgG3: 0.531
[2]; individual mouse
  IgG1: 1.810 and 2.606 and 1.738 and 0.123 and 1.649 and 2.651 and 0.562 and 0.431 and 0.042 and 2.391
  IgG2a: 0.152 and 1.386 and 0.074 and 0.005 and 0.129 and 1.619 and 0.047 and 0.031 and 0.025 and 0.200
  IgG2b: 0.223 and 2.038 and 0.464 and 0.017 and 0.025 and 1.613 and 0.059 and 0.038 and 0.183 and 0.123
  IgG3: 0.388 and 1.817 and 0.033 and −0.013 and 0.152 and 2.378 and 0.000 and 0.106 and 0.089 and 0.358
[2]; [9]
  Ig1, serial dilution 1:200: 0.507
  Ig1, serial dilution 1:800: 0.173
  Ig1, serial dilution 1:3200: 0.025
  Ig1, serial dilution 1:12800: 0.009
  Ig1, serial dilution 1:51200: 0.014
  Ig1, serial dilution 1:204800: 0.000
  Ig2a, serial dilution 1:200: 0.000
  Ig2a, serial dilution 1:800: 0.015
  Ig2a, serial dilution 1:3200: 0.000
  Ig2a, serial dilution 1:12800: 0.003
  Ig2a, serial dilution 1:51200: 0.006
  Ig2a, serial dilution 1:204800: 0.000
  Ig2b, serial dilution 1:200: 0.017
  Ig2b, serial dilution 1:800: 0.000
  Ig2b, serial dilution 1:3200: 0.004
  Ig2b, serial dilution 1:12800: 0.001
  Ig2b, serial dilution 1:51200: 0.000
  Ig2b, serial dilution 1:204800: 0.000
  Ig3, serial dilution 1:200: 0.009
  Ig3, serial dilution 1:800: 0.002
  Ig3, serial dilution 1:3200: 0.000
  Ig3, serial dilution 1:12800: 0.000
  Ig3, serial dilution 1:51200: 0.000
  Ig3, serial dilution 1:204800: 0.000
[2]; with MPL
  Ig1, serial dilution 1:200: 0.103
  Ig1, serial dilution 1:800: 0.022
  Ig1, serial dilution 1:3200: 0.003
  Ig1, serial dilution 1:12800: 0.000
  Ig1, serial dilution 1:51200: 0.000
  Ig1, serial dilution 1:204800: 0.000
  Ig2a, serial dilution 1:200: 0.248
  Ig2a, serial dilution 1:800: 0.048
  Ig2a, serial dilution 1:3200: 0.000
  Ig2a, serial dilution 1:12800: 0.000
  Ig2a, serial dilution 1:51200: 0.002
  Ig2a, serial dilution 1:204800: 0.000
  Ig2b, serial dilution 1:200: 0.147
  Ig2b, serial dilution 1:800: 0.026
  Ig2b, serial dilution 1:3200: 0.022
  Ig2b, serial dilution 1:12800: 0.006
  Ig2b, serial dilution 1:51200: 0.007
  Ig2b, serial dilution 1:204800: 0.018
  Ig3, serial dilution 1:200: 0.265
  Ig3, serial dilution 1:800: 0.044
  Ig3, serial dilution 1:3200: 0.006
  Ig3, serial dilution 1:12800: 0.001
  Ig3, serial dilution 1:51200: 0.000
  Ig3, serial dilution 1:204800: 0.000
Modified HGP-30; day 42, first set of groups (animals 4637-4648, 4674-4678), individual animal
  A 490 1:200 dilution on plates coated with modified HGP-30: 0.257 A 490 and 0.571 A 490 and 0.065 A 490 and 0.392 A 490 and 1.008 A 490 and 0.021 A 490
Modified HGP-30; day 42, first set of groups, Average
  A 490 1:200 dilution on plates coated with modified HGP-30: 0.386 A 490
Modified HGP-30; day 42, second set of groups (animals 4662-4673, 4679-4683), individual animal
  A 490 1:200 dilution on plates coated with modified HGP-30: 0.051 A 490 and 0.052 A 490 and 1.102 A 490 and 0.005 A 490 and 0.000 A 490 (2×)
Modified HGP-30; day 42, second set of groups, Average
  A 490 1:200 dilution on plates coated with modified HGP-30: 0.202 A 490
Modified HGP-30; group (A), Group Average
  ELISA test antigen Modified HGP-30: 0.576
Modified HGP-30; group (A), individual mouse
  ELISA test antigen Modified HGP-30: 0.470 and 1.103 and 0.046 and 0.390 and 1.297 and 0.153
Modified HGP-30; group (B), Group Average
  ELISA test antigen Modified HGP-30: 0.394
Modified HGP-30; group (B), individual mouse
  ELISA test antigen Modified HGP-30: 0.187 and 0.188 and 1.848 and 0.145 and 0.000 (2×)
Modified HGP-30; [10]
  ELISA signal on modified HGP-30: 1.831 and 2.453 and 2.530 and 1.740 and 0.398 and 1.240 and 2.665 and 1.014 and 0.444 and 0.304
B Clade; group (A), Group Average
  ELISA test antigen B Clade: 0.005
B Clade; group (A), individual mouse
  ELISA test antigen B Clade: 0.000 (5×) and 0.028
B Clade; group (B), Group Average
  ELISA test antigen B Clade: 0.022
B Clade; group (B), individual mouse
  ELISA test antigen B Clade: 0.000 (3×) and 0.006 and 0.079 and 0.046
B Clade; [10]
  ELISA signal on B Clade: 0.000 (6×) and 0.316 and 0.148 and 0.006 and 0.230
C Clade; group (A), Group Average
  ELISA test antigen C Clade: 0.018
C Clade; group (A), individual mouse
  ELISA test antigen C Clade: 0.000 (4×) and 0.004 and 0.104
C Clade; group (B), Group Average
  ELISA test antigen C Clade: 0.009
C Clade; group (B), individual mouse
  ELISA test antigen C Clade: 0.003 (2×) and 0.000 (3×) and 0.050
C Clade; [10]
  ELISA signal on C Clade: 0.125 and 0.359 and 0.238 and 0.047 and 0.005 and 0.076 and 0.643 and 0.000 (3×)
D Clade [3]; group (A)
  ELISA test antigen D Clade: 0.000
D Clade [3]; group (B)
  ELISA test antigen D Clade: 0.002
D Clade [3]; [10]
  ELISA signal on D Clade: 0.025 and 0.646 and 0.000 (6×) and 0.001 and 0.016
E Clade [4]; group (A)
  ELISA test antigen E Clade: 0.000
E Clade [4]; group (B)
  ELISA test antigen E Clade: 0.000
E Clade [4]; [10]
  ELISA signal on E Clade: 0.000 (8×) and 0.016 and 0.504
Peptide G [5]; day 42, first set of groups
  A 490 1:200 dilution on plates coated with Peptide G: 0.099 A 490
Peptide G [5]; day 42, second set of groups
  A 490 1:200 dilution on plates coated with Peptide G: 0.062 A 490
Peptide G [5]; day 42 sera at 1:200, Table 5, in words
  Reactivity toward the delivery vehicle TCBL: minimal reactivity
D Clade [6]; group (A)
  ELISA test antigen D Clade: 0.000
D Clade [6]; group (B)
  ELISA test antigen D Clade: 0.005 and 0.006 and 0.000 (4×)
E Clade [7]; group (A)
  ELISA test antigen E Clade: 0.000
E Clade [7]; group (B)
  ELISA test antigen E Clade: 0.000
Peptide G [8]; day 42, first set of groups (animals 4637-4648, 4674-4678)
  A 490 1:200 dilution on plates coated with Peptide G: 0.195 A 490 and 0.122 A 490 and 0.092 A 490 and 0.088 A 490 and 0.047 A 490
Peptide G [8]; day 42, second set of groups (animals 4662-4673, 4679-4683)
  A 490 1:200 dilution on plates coated with Peptide G: 0.024 A 490 and 0.044 A 490 and 0.062 A 490 and 0.033 A 490 and 0.060 A 490 and 0.151 A 490
